Measurements: ChEMBL document CHEMBL3045590, “Design, synthesis, bioactivity, and structure-activity relationship (SAR) studies of novel benzoylphenylureas containing oxime ether group” (2008)
Values after ≈ are worked out from the molar mass of the structure shown.

Experiments:
Type in all cases: functional
Mythimna separata [1] = assay: Larvicidal activity against fourth-instar larval stage of Mythimna separata (Oriental armyworm) in compound-pretreated corn leaves assessed as mortality at 25 +/-1 degC after 4 days
Mythimna separata [2] = assay: Larvicidal activity against fourth-instar larval stage of Mythimna separata (Oriental armyworm) in compound-pretreated corn leaves assessed as mortality at 100 mg/l at 25 +/-1 degC after 4 days
Culex pipiens pallens [3] = assay: Larvicidal activity against fourth-instar larval stage of Culex pipiens pallens (mosquito) assessed as mortality at 0.1 mg/l at 25 +/-1 degC after 8 days; conditions: 192 h
Culex pipiens pallens [4] = assay: Larvicidal activity against fourth-instar larval stage of Culex pipiens pallens (mosquito) assessed as mortality at 0.5 mg/l at 25 +/-1 degC after 8 days; conditions: 192 h
Cucumis sativus = assay: Growth regulation of Cucumis sativus (cucumber) seeds assessed as stimulation of radicle growth at 10 mg/l at 26 degC after 5 days
Culex pipiens pallens [5] = assay: Larvicidal activity against fourth-instar larval stage of Culex pipiens pallens (mosquito) assessed as mortality at 1 mg/l at 25 +/-1 degC after 8 days; conditions: 192 h
Mythimna separata [6] = assay: Larvicidal activity against fourth-instar larval stage of Mythimna separata (Oriental armyworm) in compound-pretreated corn leaves assessed as mortality at 50 mg/l at 25 +/-1 degC after 4 days
Culex pipiens pallens [7] = assay: Larvicidal activity against fourth-instar larval stage of Culex pipiens pallens (mosquito) assessed as mortality at 0.25 mg/l at 25 +/-1 degC after 8 days; conditions: 192 h
Culex pipiens pallens [8] = assay: Larvicidal activity against fourth-instar larval stage of Culex pipiens pallens (mosquito) assessed as mortality at 0.025 mg/l at 25 +/-1 degC after 8 days; conditions: 192 h
Culex pipiens pallens [9] = assay: Larvicidal activity against fourth-instar larval stage of Culex pipiens pallens (mosquito) assessed as mortality at 0.05 mg/l at 25 +/-1 degC after 8 days; conditions: 192 h
Mythimna separata [10] = assay: Larvicidal activity against fourth-instar larval stage of Mythimna separata (Oriental armyworm) in compound-pretreated corn leaves assessed as mortality at 2.5 mg/l at 25 +/-1 degC after 4 days
Mythimna separata [11] = assay: Larvicidal activity against fourth-instar larval stage of Mythimna separata (Oriental armyworm) in compound-pretreated corn leaves assessed as mortality at 25 mg/l at 25 +/-1 degC after 4 days
Culex pipiens pallens [12] = assay: Larvicidal activity against fourth-instar larval stage of Culex pipiens pallens (mosquito) assessed as mortality at 0.01 mg/l at 25 +/-1 degC after 8 days; conditions: 192 h
Mythimna separata [13] = assay: Larvicidal activity against fourth-instar larval stage of Mythimna separata (Oriental armyworm) in compound-pretreated corn leaves assessed as mortality at 200 mg/l at 25 +/-1 degC after 4 days
Mythimna separata [14] = assay: Larvicidal activity against fourth-instar larval stage of Mythimna separata (Oriental armyworm) in compound-pretreated corn leaves assessed as mortality at 10 mg/l at 25 +/-1 degC after 4 days
Culex pipiens pallens [15] = assay: Larvicidal activity against fourth-instar larval stage of Culex pipiens pallens (mosquito) assessed as mortality at 0.005 mg/l at 25 +/-1 degC after 8 days; conditions: 192 h
Culex pipiens pallens [16] = assay: Larvicidal activity against fourth-instar larval stage of Culex pipiens pallens (mosquito) assessed as mortality at 0.0025 mg/l at 25 +/-1 degC after 8 days; conditions: 192 h
Mythimna separata [17] = assay: Larvicidal activity against fourth-instar larval stage of Mythimna separata (Oriental armyworm) in compound-pretreated corn leaves assessed as mortality at 5 mg/l at 25 +/-1 degC after 4 days
Mythimna separata [18] = assay: Larvicidal activity against fourth-instar larval stage of Mythimna separata (Oriental armyworm) in compound-pretreated corn leaves assessed as mortality at 1 mg/l at 25 +/-1 degC after 4 days
Mythimna separata [19] = assay: Larvicidal activity against fourth-instar larval stage of Mythimna separata (Oriental armyworm) in compound-pretreated corn leaves assessed as mortality at 0.5 mg/l at 25 +/-1 degC after 4 days
Culex pipiens pallens [20] = assay: Larvicidal activity against fourth-instar larval stage of Culex pipiens pallens (mosquito) assessed as mortality at 2 mg/l at 25 +/-1 degC after 8 days; conditions: 192 h
Culex pipiens pallens [21] = assay: Larvicidal activity against fourth-instar larval stage of Culex pipiens pallens (mosquito) assessed as mortality at 0.001 mg/l at 25 +/-1 degC after 8 days; conditions: 192 h

SMILES | mortality at 100 µg/mL (Mythimna separata [2]) [%] | mortality at 0.1 µg/mL (Culex pipiens pallens [3]) [%] | mortality at 0.5 µg/mL (Culex pipiens pallens [4]) [%] | Activity (Cucumis sativus) [%] | mortality at 1 µg/mL (Culex pipiens pallens [5]) [%] | mortality at 50 µg/mL (Mythimna separata [6]) [%] | mortality at 0.25 µg/mL (Culex pipiens pallens [7]) [%] | mortality at 0.025 µg/mL (Culex pipiens pallens [8]) [%] | mortality at 0.05 µg/mL (Culex pipiens pallens [9]) [%] | mortality at 2.5 µg/mL (Mythimna separata [10]) [%] | mortality at 25 µg/mL (Mythimna separata [11]) [%] | mortality at 0.01 µg/mL (Culex pipiens pallens [12]) [%] | mortality at 10 µg/mL (Mythimna separata [14]) [%] | other results
O=C(NC(=O)c1c(Cl)cccc1Cl)Nc1ccc(Cl)cc1 [DICHLORBENZURON] |  |  |  |  |  |  |  |  |  |  |  |  |  | LC50 (Mythimna separata [1]): 1.82 µg/mL (≈ 5.3 µM)
CC(C)CO/N=C/c1ccc(NC(=O)NC(=O)c2c(F)cccc2F)cc1 | 100 | 100 | 100 | 45 | 100 | 80 | 100 | 10 | 10 | 0 | 30 | 0 |  | 
O=C(NC(=O)c1c(F)cccc1F)Nc1ccc(/C=N/OCc2ccccc2)cc1 | 30 | 10 | 100 | 60 | 100 | 10 | 20 |  |  |  | 0 |  |  | mortality at 200 µg/mL (Mythimna separata [13]): 40%
O=C(NC(=O)c1c(F)cccc1F)Nc1ccc(/C=N/OCCF)cc1 |  | 60 | 100 | 110 | 100 | 90 | 100 | 0 | 10 | 0 | 90 |  | 20 | 
CCCC(C)O/N=C/c1ccc(NC(=O)NC(=O)c2c(F)cccc2F)cc1 (configuration not stated) |  | 100 |  | 45 |  | 80 |  | 100 | 100 | 0 | 70 | 40 | 20 | mortality at 0.005 µg/mL (Culex pipiens pallens [15]): 20%; mortality at 0.0025 µg/mL (Culex pipiens pallens [16]): 10%
O=C(NC(=O)c1c(F)cccc1F)Nc1cc(Cl)c(OC(F)(F)C(F)F)c(Cl)c1 [HEXAFLUMURON] |  |  |  |  |  |  |  |  |  |  |  |  |  | LC50 (Mythimna separata [1]): 4.7 µg/mL (≈ 10.2 µM)
O=C(NC(=O)c1ccccc1Cl)Nc1ccc(Cl)cc1 [CHLORBENZURON] |  |  |  |  |  |  |  |  |  |  |  |  |  | LC50 (Mythimna separata [1]): 2.29 µg/mL (≈ 7.41 µM)
COC(=O)CO/N=C/c1ccc(NC(=O)NC(=O)c2c(F)cccc2F)cc1 | 80 | 0 | 100 |  | 100 | 56.7 | 80 |  |  | 0 | 30 |  | 10 | mortality at 200 µg/mL (Mythimna separata [13]): 90%
O=C(NC(=O)c1c(F)cccc1F)Nc1ccc(/C=N/OCCCl)cc1 |  | 90 | 100 | 110 | 100 | 100 | 100 | 20 | 90 | 55 |  | 0 | 100 | mortality at 5 µg/mL (Mythimna separata [17]): 75%; mortality at 1 µg/mL (Mythimna separata [18]): 0%
O=C(NC(=O)c1c(F)cccc1F)Nc1ccc(CO/N=C(/c2ccc(Cl)cc2)C2CC2)cc1 [FLUCYCLOXURON] |  | 100 |  |  |  |  |  | 15 | 100 | 50 |  | 0 | 95 | mortality at 0.5 µg/mL (Mythimna separata [19]): 0%; mortality at 5 µg/mL (Mythimna separata [17]): 90%; LC50 (Mythimna separata [1]): 2.44 µg/mL (≈ 5.04 µM); mortality at 1 µg/mL (Mythimna separata [18]): 10%
O=C(NC(=O)c1c(F)cccc1F)Nc1cc(Cl)c(F)c(Cl)c1F [TEFLUBENZURON] |  |  |  |  |  |  |  |  |  |  |  |  |  | LC50 (Mythimna separata [1]): 1.14 µg/mL (≈ 2.99 µM)
CCCCCO/N=C/c1ccc(NC(=O)NC(=O)c2c(F)cccc2F)cc1 |  | 15 | 90 | 50 | 100 | 90 | 80 |  | 0 |  | 20 |  | 0 | mortality at 2 µg/mL (Culex pipiens pallens [20]): 100%
O=C(NC(=O)c1c(F)cccc1F)Nc1ccc(/C=N/OCC2CC2)cc1 |  |  |  |  |  |  |  |  |  | 90 | 100 | 100 | 100 | mortality at 0.005 µg/mL (Culex pipiens pallens [15]): 100%; mortality at 5 µg/mL (Mythimna separata [17]): 100%; mortality at 0.001 µg/mL (Culex pipiens pallens [21]): 0%; mortality at 0.0025 µg/mL (Culex pipiens pallens [16]): 60%; mortality at 1 µg/mL (Mythimna separata [18]): 0%
COCCO/N=C/c1ccc(NC(=O)NC(=O)c2c(F)cccc2F)cc1 | 10 |  | 0 | 30 | 100 | 0 |  |  |  |  |  |  |  | mortality at 200 µg/mL (Mythimna separata [13]): 40%
CCCO/N=C/c1ccc(NC(=O)NC(=O)c2c(F)cccc2F)cc1 | 80 | 100 | 100 |  | 100 | 70 | 100 | 0 | 50 | 0 | 20 |  |  | 
CCO/N=C/c1ccc(NC(=O)NC(=O)c2c(F)cccc2F)cc1 | 100 | 100 | 100 | 0 | 100 | 100 | 100 | 10 |  |  | 75 | 0 | 10 | mortality at 5 µg/mL (Mythimna separata [17]): 0%
CCC(C)O/N=C/c1ccc(NC(=O)NC(=O)c2c(F)cccc2F)cc1 (configuration not stated) |  | 100 |  |  |  |  |  | 100 | 100 | 30 | 100 | 40 | 80 | mortality at 0.005 µg/mL (Culex pipiens pallens [15]): 20%; mortality at 5 µg/mL (Mythimna separata [17]): 50%; mortality at 0.0025 µg/mL (Culex pipiens pallens [16]): 10%; mortality at 1 µg/mL (Mythimna separata [18]): 0%
C#CCO/N=C/c1ccc(NC(=O)NC(=O)c2c(F)cccc2F)cc1 |  | 100 | 100 |  | 100 | 100 | 100 | 10 | 40 | 10 | 75 | 0 | 55 | mortality at 1 µg/mL (Mythimna separata [18]): 0%
CCCCO/N=C/c1ccc(NC(=O)NC(=O)c2c(F)cccc2F)cc1 | 40 | 100 | 100 | 50 | 100 | 0 | 100 | 0 | 100 |  |  |  |  | mortality at 200 µg/mL (Mythimna separata [13]): 50%
O=C(NC(=O)c1c(F)cccc1F)Nc1cc(Cl)c(Oc2ncc(C(F)(F)F)cc2Cl)c(Cl)c1 [CHLORFLUAZURON] |  |  |  |  |  |  |  |  |  |  |  |  |  | LC50 (Mythimna separata [1]): 1.03 µg/mL (≈ 1.91 µM)
O=C(NC(=O)c1c(F)cccc1F)Nc1ccc(/C=N/OC2CCCC2)cc1 | 20 | 100 | 100 | 85 | 100 | 0 | 100 | 0 | 10 |  |  |  |  | mortality at 200 µg/mL (Mythimna separata [13]): 70%
CO/N=C/c1ccc(NC(=O)NC(=O)c2c(F)cccc2F)cc1 | 90 | 100 | 100 | 30 | 100 | 40 | 100 | 10 | 100 |  | 0 | 0 |  | 
C=CCO/N=C/c1ccc(NC(=O)NC(=O)c2c(F)cccc2F)cc1 | 90 | 90 | 100 | 120 | 100 | 66.7 | 100 | 0 |  |  | 10 |  | 0 | 
